Measured values taken from US11491184B2, “Liquids rich in noble gas and methods of their preparation and use” (THE BOARD OF REGENTS OF THE UNIVERSITY OF TEXAS SYSTEM, priority 2013, dated 2022).
In brackets after ≈: the same amount, converted by molar mass.

Legend:
[1] = cited from earlier work; for concentration dissolved in water: standard temperature and pressure
[2] = system: apolipoprotein-E (Apo E) knockout (KO) mice; assay: Echocardiographic measurements after oral Xe-rich solution, Apo E KO mice on high fat diet; type: in vivo
Source text: (§1) All animal studies were approved by the Animal Welfare Committee at The University of Texas Health Science Center at Houston. C57BL/6J wild type (WT) and apolipoprotein-E (Apo E) knockout (KO) mice were purchased from Jackson Laboratory (Bar Harbor, Me., USA), see, e.g., Meir et al., 2004, incorporated herein by reference. The control WT mice used were C57BL/6J, which share the same genetic background with the Apo E KO mice. Six- to eight-month-old male WT and KO mice were fed control or high fat diet (Harlan Laboratories, USA) and administered control or Xe-rich solution (200 μl, once a day) and water drink for 6 weeks, since the Apo E KO mice type fed a high fat diet develop atherosclerotic lesions.
(§2) Baseline measurements by echocardiography were obtained before feeding with the high fat diet. Cardiac morphology and function were assessed by serial M-mode echocardiography using a Vevo 770 Imaging System (VisualSonics Inc., Ontario, Canada) equipped with a 30 MHz microprobe. M-mode ventricular measurements were taken at 6-weeks after the feeding. Electrocardiographic (ECG) data was obtained. Echo data (HR, heart rate; LVID, left ventricular internal dimension; IVS, intra-ventricular septum; LVPW, left ventricular posterior wall; FS, fractional shortening; SV, stroke volume; EF, ejection fraction; CO, cardiac output; LV Vol, LV volume; LV mass corrected) were analyzed with the analysis software (VisualSonics Inc., Ontario, Canada).
(§3) Animals were divided into 5 groups (see experiment setting). Echocardiography was used to assess cardiac dimensions and function at baseline, and at 6-weeks following the Xe exposure (FIGS. 1 and 2; Table 1). Cardiac size of WT and KO hearts were determined with LV mass (corrected) and normalized to body weight (mg/g) following 6-weeks of the Xe exposure (FIG. 3A).

[3] = system: apolipoprotein-E (Apo E) knockout (KO) mice; assay: Heart weight normalized to body weight after Xe-rich solution; type: in vivo; conditions: KO6w Xe vs KO6w vehicle, 6 weeks
Source text: as §1, §3

[4] = Measurement of Xe dissolved / encapsulated in water and hp-beta-CD; type: physicochemical; conditions: 3 atm
Protocol: Xenon was enclosed into a soluble caged molecules (e.g., cyclodextrin). To remove possible residue molecules from cage, the caged molecular was baked at 40-80° C. under vacuum for overnight. To enclose xenon into caged molecules, xenon was incubated with caged molecular in a sealed vial under 2-10 atm pressure at […]. for overnight to 3 days.
Pure water was degassed under 20-80 mbar vacuum at room temperature for overnight. Xenon (99.999% Medical grade, Matheson Tri-Gas®, Houston, Tex., USA) was re-dissolved into degassed water by pressure water with 2-10 atm xenon gas at 4° C. for overnight to 3 days.
Xe-rich-water is composed of Xe directly dissolved in water and caging with hydroxypropyl-beta-cyclodextrin (hp-beta-CD) in water. […]
To measure the amount of Xe dissolved in a Xe-rich-water. […] The solution was then warmed up to 80° C. in a vial with a silicone-rubber seal (Thermo Scientific SepraSeal® (Thermo Scientific, Hudson, N.H., USA) sealed top for 2 hours. After cooling down to room temperature, a syringe with a 17 gauge needle was inserted into a vial through the silicone-rubber seal. The released Xe gas present in the top spacer formed pressure, which pushed Xe gas into the syringe. The amount of Xe released into syringe was then measured.

[5] = system: Brain-derived Neurotrophic Factor (BDNF); assay: BDNF Sandwich ELISA of heart and brain after Xe-rich solution; type: in vivo, mice; conditions: KO6w Xe vs vehicle, 6 weeks
Source text: All animal studies were approved by the Animal Welfare Committee at The University of Texas Health Science Center at Houston. C57BL/6J wild type (WT) and apolipoprotein-E (Apo E) knockout (KO) mice were purchased from Jackson Laboratory (Bar Harbor, Me., USA), see, e.g., Meir et al., 2004, incorporated herein by reference. The control WT mice used were C57BL/6J, which share the same genetic background with the Apo E KO mice. […]
Fresh frozen heart and brain tissues were slightly thawed on crushed ice to allow dissection of the hearts and brains. […] The protein concentration was determined using a Bradford Protein Assay (Bio-Rad, Calif., USA).
Except for the heart and brain extracts, the samples (such as plasma) were thawed and clarified at 12,000 rpm for 10 min at 4° C. prior to ELISA assays for β-amyloid per the manufacturer's instructions. BDNF and β-amyloid peptide (Aβ1-40) content were determined by using BDNF Sandwich ELISA Kit (Millipore Corporation, MA, USA) and a Mouse/Rat Amyloid β (1-40) High Specific ELISA Assay Kit (IBLAmerican, Minneapolis, Minn., USA). […] was measured by using SpectroMax Microplate reader (Bio-Tek Instruments) at 450 nm. All samples were analyzed in duplicate.

[6] = system: apolipoprotein-E (Apo E) knockout (KO) mice; assay: Electrocardiographic (ECG) data after Xe-rich solution; type: in vivo; conditions: KO6w treated with Xe, 6-weeks time point
Source text: as §1
as §2, with “M-mode ventricular measurements were taken at 6-weeks after the feeding. Electrocardiographic (ECG) data was obtained.” left out

[7] = Stated solubility / dissolved concentration of gases and hp-beta-CD; type: physicochemical; conditions: room temperature and 1 atm
[8] = chronic oral administration; cited from earlier work
[9] = KO6w Xe vs KO6w vehicle, 6 week time point

## [Ar] [Ar, Argon]
[1]
  concentration dissolved in water: about 55 μg/ml

## [Xe] [Xe, Xenon]
[2]; KO6w Xe vs KO6w vehicle and KO6w control, 6 weeks, Xe-rich solution 200 μl once a day
  increase in LV mass (corrected): blocked
[2]; KO6w Xe vs KO6w vehicle and KO6w/control, 6 weeks
  wall thickness increase (IVS, LVPW): significantly blocked
[2]; [9]
  decrease in LV ejection fraction (EF): significantly blocked
  decrease in LV fractional shortening (FS): significantly blocked
  decrease in cardiac output (CO): significantly blocked
[2]; KO6w given Xe, 6 weeks
  heart rate (HR) increase, in words: blocked
[3]
  heart weight normalized to body weight: Decreased
[4]; −80° C., 0.5 mg/ml of hp-beta-CD
  xenon encapsulated in a hp-beta-CD cage: 5 mL
[4]; degassed water, pure xenon gas, 4° C., 4 hours to overnight
  xenon gas dissolved into 5 ml water: 6.5 mL
[5]
  relative BDNF levels in heart: further increased
[6]
  ECG changes in T wave, ST segment and QRS complex (myocardial ischemia): did not occur
[1]
  concentration dissolved in water: about 600 μg/ml
[7]
  Xe in an oil, such as olive oil: about 12 mg Xe/ml

## CC(O)COC[C@H]1O[C@@H]2O[C@H]3[C@H](O)[C@@H](O)[C@@H](O[C@H]4[C@H](O)[C@@H](O)[C@@H](O[C@H]5[C@H](O)[C@@H](O)[C@@H](O[C@H]6[C@H](O)[C@@H](O)[C@@H](O[C@H]7[C@H](O)[C@@H](O)[C@@H](O[C@H]8[C@H](O)[C@@H](O)[C@@H](O[C@H]1[C@H](O)[C@H]2O)O[C@@H]8COCC(C)O)O[C@@H]7COCC(C)O)O[C@@H]6COCC(C)O)O[C@@H]5COCC(C)O)O[C@@H]4COCC(C)O)O[C@@H]3COCC(C)O (stereo partly drawn) [hp-beta-CD, Hydroxypropyl-beta-cyclodextrin]
[1]
  Solubility: 330 mg/mL (≈ 214 mM)

## cyclodextrin
[8]
  acceptably safe dose: about 1,000 mg/kg/day
